In publication PMC8652888, “Angiogenesis, Anti-Tumor, and Anti-Metastatic Activity of Novel α-Substituted Hetero-Aromatic Chalcone Hybrids as Inhibitors of Microtubule Polymerization” (Frontiers in Chemistry, 2021):
Several values for one entry are separate records, joined by “and”; a condition that tells them apart may be missing. Equal values may be shown once. Read-outs that look alike come from different tables or passages of the source.

How the values were obtained:
normal liver LO2 cells = experiment: Growth inhibition of normal cells; type: cell-based, human
U937 = experiment: Antiproliferative activity, CCK-8 assay; type: cell-based; conditions: Homo sapiens, U-937
Method: (§1) The synthesized compounds were first evaluated for their cytotoxic effect on MCF-7 (human breast adenocarcinoma), U937 (histiocytic lymphoma cancer), HepG2 (human liver cancer) cells, and MGC-803 (human gastric cancer) using the SRB and CCK-8 assay. As reference compounds CA-4 and colchicine were included.
(§2) The primary tumor cells were purchased from a professional biomedical company. First, the primary tumor cells were incubated in a cell culture incubator at 37°C and 5% CO2. After the cell fusion reached 85%–95%, subculture was performed, and the tumor cells obtained at this time were used for subsequent related experiments. The CCK-8 method was used to inhibit the proliferation of U937 tumor cells, and the SRB method was used to inhibit the proliferation of MCF7 and HepG2 tumor cells.
The cells in the logarithmic growth phase were seeded in a 96-well plate at 8,000/well, and the drug-containing medium and cell suspension were added to the well. Three wells were added with the blank medium as the blank group. The 96-well plate was incubated for 72 h in a 37°C, 5% CO2 incubator. The 10 μl of CCK-8 dye solution was added to each well, and the incubation continued for 3–4 h.

HepG2 = experiment: Antiproliferative activity, SRB assay; type: cell-based, human; conditions: Homo sapiens, HepG2
Method: as §1, §2
Cells were distributed into 96-well plates with a density of 3 × 10^3–4 × 10^3 cells per well and incubated for 24 h in a 5% CO2 incubator at 37°C, followed by treatment with study compounds at different concentrations at 37°C for 72 h. One hundred microliters of 10% (w/v) trichloroacetic acid was added to each well, fixed at 4°C for 30 min, and dried at 65°C. Then 100 μl of 0.4% SRB was added to each well and stained on a shaker for 20 min at room temperature. The excess dye solution was washed with newly prepared 1% glacial acetic acid and dried at 65°C. One hundred fifty microliters of 10 mM unbuffered Trisbase was added to each well of the plate and shaken for 5 min to dissolve the dye. The microplate reader measured the optical density (OD) at a wavelength of 560 nm.

MCF-7 = experiment: Antiproliferative activity, SRB assay; type: cell-based, human;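 note: proliferation of MCF7 cells quantified by sulforhodamine B staining, with optical density read at 560 nm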
[1] = test system: taxol-resistant MCF7 cells (MCF7/Tax); experiment: Growth inhibition of taxol-resistant cells; type: cell-based, human
MGC-803 = experiment: Antiproliferative activity (SRB and CCK-8 assay); type: cell-based; conditions: Homo sapiens
Description: as §1

[2] = Homo sapiens, L02, three single determinations, read-out: L02 (raw data of table 3, IC50)
[3] = Homo sapiens, L02, triplicate, read-out: IC50 ± SD, LO2
[4] = 72 h, triplicate, mean ± SD, read-out: IC50 ± SD, U937
[5] = supplement raw data, read-out: IC50/U937
[6] = 72 h, triplicate, mean ± SD, read-out: IC50 ± SD, HepG2
[7] = Homo sapiens, MCF7, 72 h, 72 h, triplicate, mean ± SD, read-out: IC50 ± SD, MCF-7
[8] = Homo sapiens, MCF7, Table 3, triplicate, read-out: IC50 ± SD, MCF7
[9] = Homo sapiens, MCF7, supplement raw data, read-out: IC50/MCF
[10] = Homo sapiens, MCF7, three single determinations, read-out: MCF-7 (raw data of table 3, IC50)
[11] = Homo sapiens, MCF7, three single determinations, read-out: MCF-7/Taxol (raw data of table 3, IC50)
[12] = Homo sapiens, MCF7, triplicate, read-out: IC50 ± SD, MCF7/Tax
[13] = supplement raw data, read-out: IC50/MGC
[14] = triplicate, mean ± SD, read-out: IC50 ± SD, MGC-803
[15] = supplement raw data of table 2, read-out: IC50(U937)
[16] = supplement raw data of table 2, read-out: IC50(Hepg2)

Compound | IC50 (U937; [4]) [nM] | IC50 (HepG2; [6]) [nM] | IC50 (MCF-7; [7]) [nM] | IC50 (MCF-7; [9]) [nM] | melting point [°C] | IC50 (MGC-803; [13]) [nM] | IC50 (MGC-803; [14]) [nM] | other results
COc1ccc(/C=C\c2cc(OC)c(OC)c(OC)c2)cc1O [CA-4, reference compound] | 0.3 ± 0.1 | 7.1 ± 0.9 | 11.4 ± 0.2 | 11.4 ± 0.2 | – | – | – | IC50 (normal liver LO2 cells; [2]): 14.1 nM; IC50 (normal liver LO2 cells; [3]): 15.2 ± 0.5 nM; IC50 (normal liver LO2 cells; three single determinations, read-out: L02 (raw data of table 3, IC50)): 16.2 nM and 15.3 nM; IC50 (U937; [5]): 0.326 ± 0.1 nM; IC50 (HepG2; supplement raw data, read-out: IC50/Hepg2): 7.09 ± 0.9 nM; IC50 (MCF-7; [8]): 11.4 ± 0.2 nM; IC50 (MCF-7; [10]): 11.8 nM; IC50 [1, 11]: 20.2 nM; IC50 [1, 12]: 21.2 ± 0.6 nM; IC50 ([1]; three single determinations, read-out: MCF-7/Taxol (raw data of table 3, IC50)): 22.1 nM and 21.3 nM
COc1cc(C(=O)/C=C/c2csc3ccccc23)cc(OC)c1OC [Compound 6p, (E)-3-(benzo[b]thiophen-3-yl)-1-(3,4,5-trimethoxyphenyl)prop-2-en-1-one] | > 20000 | 1380 ± 136 | 283 ± 11 | 283 | 95.5 to 96.4 | 75.7 | 76 ± 1 | –
COc1cc(C(=O)/C=C/c2c[nH]c3cc(Br)ccc23)cc(OC)c1OC [Compound 6g, (E)-3-(6-bromo-1H-indol-3-yl)-1-(3,4,5-trimethoxyphenyl)prop-2-en-1-one] | > 20000 | 18100 ± 295 | 380 ± 20 | 380 | 216.4 to 217.6 | 70.6 | 71 ± 2 | –
COc1cc(C(=O)/C=C/c2cccc3c2OCO3)cc(OC)c1OC [Compound 6s, (E)-3-(benzo[d][1,3]dioxol-4-yl)-1-(3,4,5-trimethoxyphenyl)prop-2-en-1-one] | > 20000 | 3320 ± 229 | 1230 ± 133 | – | 138.4 to 140.3 | 393 | 393 ± 17 | –
CC(=O)O[C@H]1C(=O)[C@@]2(C)[C@H]([C@H](OC(=O)c3ccccc3)[C@]3(O)C[C@H](OC(=O)[C@H](O)[C@@H](NC(=O)c4ccccc4)c4ccccc4)C(C)=C1C3(C)C)[C@]1(OC(C)=O)CO[C@@H]1C[C@@H]2O [Taxol, paclitaxel] | – | – | – | – | – | – | – | Selectivity ratio (normal liver LO2 cells; (IC50 human normal cells LO2)/(IC50 MCF7)): 1.3; IC50 (normal liver LO2 cells; [2]): 32.1 nM; IC50 (normal liver LO2 cells; [3]): 32.4 ± 1.9 nM; IC50 (normal liver LO2 cells; three single determinations, listed as TaxolL, read-out: L02 (raw data of table 3, IC50)): 34.5 nM and 30.6 nM; IC50 (MCF-7; [8]): 24.6 ± 3.2 nM; IC50 (MCF-7; [10]): 20.6 nM; IC50 (MCF-7; three single determinations, listed as TaxolL, read-out: MCF-7 (raw data of table 3, IC50)): 28.3 nM and 24.9 nM; Resistant fold ([1]; (IC50 MCF7/Tax)/(IC50 MCF7)): 13.7; IC50 [1, 11]: 334 nM; IC50 [1, 12]: 336 ± 18 nM; IC50 ([1]; three single determinations, listed as TaxolL, read-out: MCF-7/Taxol (raw data of table 3, IC50)): 315 nM and 359 nM
COc1cc(C(=O)/C=C/c2nc3ccccc3n2C)cc(OC)c1OC [Compound 6r, (E)-3-[1-methyl-1H-benzo (d)imidazol-2-yl]-1-(3,4,5-trimethoxyphenyl)prop-2-en-1-one] | 1280 ± 71 | 4670 ± 295 | 5190 ± 465 | – | 123.5 to 125.2 | – | 2030 ± 225 | –
COc1cc(C(=O)/C=C/c2c(-c3ccccc3)[nH]c3ccccc23)cc(OC)c1OC [Compound 6c, (E)-3-(2-phenyl-1H-indol-3-yl)-1-(3,4,5-trimethoxyphenyl)prop-2-en-1-one] | 601 ± 267 | 1080 ± 92 | 313 ± 17 | 313 | 60.2 to 61.7 | – | 104 ± 1 | IC50 (U937; [5]): 601 nM
COc1cc(C(=O)/C=C/c2c(C)[nH]c3ccccc23)cc(OC)c1OC [Compound 6b, (E)-3-(2-methyl-1H-indol-3-yl)-1-(3,4,5-trimethoxyphenyl)prop-2-en-1-one] | > 20000 | 14110 ± 117 | 281 ± 22 | 281 | 236.7 to 238.2 | 190 | 190 ± 2 | –
COc1cc(C(=O)/C=C/c2ccc3occc3c2)cc(OC)c1OC [Compound 6m, (E)-3-(benzofuran-5-yl)-1-(3,4,5-trimethoxyphenyl)prop-2-en-1-one] | 6170 ± 1640 | > 20000 | 6460 ± 103 | – | 110.5 to 115.3 | – | 3180 ± 62 | –
COc1cc(C(=O)/C=C/c2ccc3oc4ccccc4c3c2)cc(OC)c1OC [Compound 6l, (E)-3-[dibenzo (b,d)furan-2-yl]1-(3,4,5-trimethoxyphenyl)prop-2-en-1-one] | 2080 ± 252 | 3270 ± 65 | 810 ± 68 | 810 | 56.5 to 57.6 | 326 | 326 ± 16 | –
COc1cc(C(=O)/C=C/c2ccc3sc4ccccc4c3c2)cc(OC)c1OC [Compound 6q, (E)-3[dibenzo (b,d)thiophen-2-yl]-1-(3,4,5-trimethoxyphenyl)prop-2-en-1-one] | 6380 ± 148 | 10600 ± 457 | 5090 ± 569 | – | 118.7 to 119.2 | – | 3220 ± 284 | –
COc1cc(C(=O)/C=C/c2cc3ccccc3s2)cc(OC)c1OC [Compound 6o, (E)-3-(benzo[b]thiophen-2-yl)-1-(3,4,5-trimethoxyphenyl)prop-2-en-1-one] | > 20000 | 8380 ± 585 | 2070 ± 43 | – | 115.5 to 116.9 | – | 1380 ± 86 | –
COc1cc(C(=O)/C=C/c2ccc3c(c2)CCO3)cc(OC)c1OC [Compound 6n, (E)-3-(2,3-dihydrobenzofuran-5-yl)-1-(3,4,5-trimethoxyphenyl)prop-2-en-1-one] | > 20000 | > 20000 | 3130 ± 415 | – | 107.5 to 110.3 | 851 | 851 ± 63 | –
COc1cc(C(=O)/C=C/c2cc3ccccc3o2)cc(OC)c1OC [Compound 6h, (E)-3-(benzofuran-2-yl)-1-(3,4,5-trimethoxyphenyl)prop-2-en-1-one] | > 20000 | > 20000 | 14600 ± 368 | – | 79.5 to 80.3 | – | 8780 ± 309 | –
COc1cc(C(=O)/C=C/c2coc3ccccc23)cc(OC)c1OC [Compound 6j, (E)-3-(benzofuran-3-yl)-1-(3,4,5-trimethoxyphenyl)prop-2-en-1-one] | 786 ± 346 | 4820 ± 102 | 988 ± 6 | 988 | 117.5 to 120.8 | 395 | 395 ± 15 | IC50 (U937; [5]): 786 nM
COc1cc(C(=O)/C(C#N)=C/c2ccc3sc4ccccc4c3c2)cc(OC)c1OC [Compound 8q, (E)-3-[dibenzo (b,d)thiophen-2-yl]-2-(3,4,5-trimethoxybenzoyl)acrylonitrile] | 52300 ± 3660 | > 20000 | > 20000 | – | 199.7 to 201.1 | – | – | IC50 (U937; [15]): 52300 nM
COc1cc(C(=O)/C(C)=C/c2oc3ccccc3c2C)cc(OC)c1OC [Compound 7i, (E)-2-methyl-3-(3-methylbenzofuran-2-yl)-1-(3,4,5-trimethoxyphenyl)prop-2-en-1-one] | 1180 ± 37 | 879 ± 7 | 1410 ± 21 | – | 113.2 to 115.1 | – | – | IC50 (HepG2; [16]): 879 nM
COC(=O)c1ccc2[nH]cc(/C=C(\C)C(=O)c3cc(OC)c(OC)c(OC)c3)c2c1 [Compound 7e, methyl(E)-3-(2-methyl-3-oxo-3-(3,4,5-trimethoxyphenyl)prop-1-en-1-yl)-1H-indole-5-carboxylate] | > 20000 | > 20000 | > 20000 | – | 210.4 to 213.7 | – | – | –
COc1cc(C(=O)/C(C#N)=C/c2cc3c(cc2[N+](=O)[O-])OCO3)cc(OC)c1OC [Compound 8k, (E)-3-[6-nitrobenzo(d)(1,3)dioxol-5-yl]-2-(3,4,5-trimethoxybenzoyl)acrylonitrile] | 14310 ± 127 | 18740 ± 35 | 16430 ± 42 | – | 160.1 to 163.8 | – | – | IC50 (U937; [15]): 14300 nM; IC50 (HepG2; [16]): 18700 nM
